This note sets out measurements from US8865623B2, “Herbicidally active cyclic diones and derivatives thereof, processes for their preparation, compositions, and method of controlling weeds” (Syngenta Limited, priority 2009, dated 2014).

Format in all cases: in vivo
Experiment [1] concerns Lolium perenne (LOLPE). As to the kind of experiment: Post-emergence herbicidal activity, glasshouse pot test. The settings on record: Lolium perenne, 312 h, rate 250 g/ha, evaluated after 13 days, read-out: Post-emergence activity LOLPE (100=total damage to plant; 0=no damage to plant). An outline of the steps:
(§1)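 Potted plants sprayed one day after sowing (pre-emergence) or after 8 days (post-emergence) with formulation in acetone/water (50:50) containing 0.5% Tween 20. Glasshouse at 24/16 °C, 14 h light, 65% humidity; damage scored after 13 days (0 none, 100 total).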

In experiment [2] the test system is Avena fatua (AVEFA). The description is as above. The settings on record: Avena fatua, 312 h, rate 250 g/ha, evaluated after 13 days, read-out: Post-emergence activity AVEFA (100=total damage to plant; 0=no damage to plant). Put shortly:
as §1

The subject of experiment [3] is Alopecurus myosuroides (ALOMY). Described as above. The settings on record: Alopecurus myosuroides, 312 h, rate 250 g/ha, evaluated after 13 days, read-out: Post-emergence activity ALOMY (100=total damage to plant; 0=no damage to plant). Put shortly: as §1
Experiment [4] deals with Echinochloa crus-galli (ECHCG). The experiment is described as above. The settings on record: Echinochloa crus-galli, 312 h, rate 250 g/ha, evaluated after 13 days, read-out: Post-emergence activity ECHCG (100=total damage to plant; 0=no damage to plant). Put shortly:
as §1

In experiment [5] the test system is Lolium perenne (LOLPE). As to the kind of experiment: Pre-emergence herbicidal activity, glasshouse pot test. The settings on record: Lolium perenne, 312 h, Rate 250 g/ha, evaluated after 13 days, read-out: Pre-emergence activity LOLPE (100=total damage to plant; 0=no damage to plant). Put shortly: as §1
Experiment [6] has as its system Avena fatua (AVEFA). Described as above. The settings on record: Avena fatua, 312 h, Rate 250 g/ha, evaluated after 13 days, read-out: Pre-emergence activity AVEFA (100=total damage to plant; 0=no damage to plant). Put shortly: as §1
The subject of experiment [7] is Alopecurus myosuroides (ALOMY). Described as above. The conditions noted are these: Alopecurus myosuroides, 312 h, Rate 250 g/ha, evaluated after 13 days, read-out: Pre-emergence activity ALOMY (100=total damage to plant; 0=no damage to plant). Put shortly: as §1
In experiment [8] the test system is Echinochloa crus-galli (ECHCG). The experiment is described as above. The settings on record: Echinochloa crus-galli, 312 h, Rate 250 g/ha, evaluated after 13 days, read-out: Pre-emergence activity ECHCG (100=total damage to plant; 0=no damage to plant). An outline of the steps:
as §1

With `CCc1ccc(Oc2ccc(F)cc2Cl)cc1C1=C(O)C(C)(C)OC(C)(C)C1=O` [Example A-33], the pest or weed control at 250 g/ha in the experiment with Lolium perenne (LOLPE) [1] (glasshouse) was 50%; in the experiment on Avena fatua (AVEFA) [2] (glasshouse) it was 50%; in experiment [3] (glasshouse) it was 40%; in experiment [4] (glasshouse), 100%; in the experiment on Lolium perenne (LOLPE) [5] (pre-emergence spray), 80%; in the experiment with Avena fatua (AVEFA) [6] (pre-emergence spray), 10%. Further, the pest or weed control at 250 g/ha in experiment [7] (pre-emergence spray) worked out at 20%; in experiment [8] (pre-emergence spray), 90%.

For `CCc1ccc(Oc2ccc(Cl)c(C)c2)cc1C1=C(O)C(C)(C)OC(C)(C)C1=O` [Example A-184], the pest or weed control at 250 g/ha in the experiment on Lolium perenne (LOLPE) [1] (glasshouse) turned out to be 30%; in the experiment with Avena fatua (AVEFA) [2] (glasshouse), 0%; in experiment [3] (glasshouse), 20%; in experiment [4] (glasshouse) it was 30%; with Lolium perenne (LOLPE) [5] (pre-emergence spray), 50%; with Avena fatua (AVEFA) [6] (pre-emergence spray), 0%. For the same compound, the pest or weed control at 250 g/ha in experiment [7] (pre-emergence spray) is 10%; in experiment [8] (pre-emergence spray), 50%.

In the case of `CCc1ccc(Oc2ccc(Br)c(Cl)c2)cc1C1=C(O)[C@H]2CC[C@H](C2)C1=O` [Example A-247], the pest or weed control at 250 g/ha with Lolium perenne (LOLPE) [1] (glasshouse) was 100%; in the experiment on Avena fatua (AVEFA) [2] (glasshouse), 100%; in experiment [3] (glasshouse), 90%; in experiment [4] (glasshouse), 100%; in the experiment on Lolium perenne (LOLPE) [5] (pre-emergence spray), 90%; with Avena fatua (AVEFA) [6] (pre-emergence spray), 50%. The pest or weed control at 250 g/ha in experiment [7] (pre-emergence spray) stood at 90%; in experiment [8] (pre-emergence spray), 100%.

In the case of `CCc1ccc(Oc2ccc(F)cc2)cc1C1=C(O)CC(C)(C)CC1=O` [Example A-28], the pest or weed control at 250 g/ha worked out at 40% in the experiment on Lolium perenne (LOLPE) [1] (glasshouse); 20% in the experiment with Avena fatua (AVEFA) [2] (glasshouse); 30% in experiment [3] (glasshouse); 80% in experiment [4] (glasshouse); 40% in the experiment on Lolium perenne (LOLPE) [5] (pre-emergence spray); 0% in the experiment on Avena fatua (AVEFA) [6] (pre-emergence spray). The pest or weed control at 250 g/ha is 20% in experiment [7] (pre-emergence spray) and 70% in experiment [8] (pre-emergence spray).

Turning to `CC1(C)OC(C)(C)C(O)=C(c2cc(Oc3nc4ccc(C(F)(F)F)cc4s3)ccc2C2CC2)C1=O` [Example A-370], the pest or weed control at 250 g/ha in the experiment with Lolium perenne (LOLPE) [1] came out at 80%; in the experiment with Avena fatua (AVEFA) [2] it was 100%; in experiment [3], 90%; in experiment [4], 100%; in the experiment on Lolium perenne (LOLPE) [5] (pre-emergence), 90%; in the experiment on Avena fatua (AVEFA) [6] (pre-emergence) it was 30%. Besides, the pest or weed control at 250 g/ha in experiment [7] (pre-emergence) is 50%; in experiment [8] (pre-emergence) it was 70%.

On to `CCc1ccc(Oc2nc3c(Cl)cc(Cl)cc3s2)cc1C1=C(O)[C@@H]2CC[C@](C)(C1=O)C2(C)C` [Example A-328], for which the pest or weed control at 250 g/ha in the experiment on Lolium perenne (LOLPE) [1] (glasshouse) amounted to 70%; in the experiment with Avena fatua (AVEFA) [2] (glasshouse) it was 80%; in experiment [3] (glasshouse), 60%; in experiment [4] (glasshouse) it was 100%; in the experiment with Lolium perenne (LOLPE) [5] (pre-emergence spray), 90%; with Avena fatua (AVEFA) [6] (pre-emergence spray) it was 30%. For the same compound, the pest or weed control at 250 g/ha in experiment [7] (pre-emergence spray) was found to be 50%; in experiment [8] (pre-emergence spray), 100%.

For the compound `CCc1ccc(Oc2ccc(F)c(Cl)c2)cc1C1=C(O)C(C)(C)OC(C)(C)C1=O` [Example A-24], the pest or weed control at 250 g/ha in the experiment on Lolium perenne (LOLPE) [1] (glasshouse) was 70%; with Avena fatua (AVEFA) [2] (glasshouse), 70%; in experiment [3] (glasshouse) it was 70%; in experiment [4] (glasshouse) it was 100%; in the experiment on Lolium perenne (LOLPE) [5] (pre-emergence spray), 90%; in the experiment on Avena fatua (AVEFA) [6] (pre-emergence spray), 40%. In addition, the pest or weed control at 250 g/ha in experiment [7] (pre-emergence spray) was found to be 30%; in experiment [8] (pre-emergence spray), 90%.

On to `CCc1ccc(Oc2nc3ccc(OC)cc3s2)cc1C1=C(O)C(C)(C)OC(C)(C)C1=O` [Example A-214], for which the pest or weed control at 250 g/ha is 100% in the experiment with Lolium perenne (LOLPE) [1] (glasshouse); 70% in the experiment on Avena fatua (AVEFA) [2] (glasshouse); 100% in experiment [3] (glasshouse); 100% in experiment [4] (glasshouse); 40% with Lolium perenne (LOLPE) [5] (pre-emergence spray); 30% with Avena fatua (AVEFA) [6] (pre-emergence spray). Moreover, the pest or weed control at 250 g/ha in experiment [7] (pre-emergence spray) was 50%; in experiment [8] (pre-emergence spray) it was 90%.

With `CCc1ccc(Oc2nccc(C(F)(F)F)n2)cc1C1=C(O)C(C)(C)OC(C)(C)C1=O` [Example A-108], the pest or weed control at 250 g/ha with Lolium perenne (LOLPE) [1] (glasshouse) came out at 50%; in the experiment with Avena fatua (AVEFA) [2] (glasshouse), 70%; in experiment [3] (glasshouse), 60%; in experiment [4] (glasshouse) it was 100%; in the experiment with Lolium perenne (LOLPE) [5] (pre-emergence spray) it was 70%; with Avena fatua (AVEFA) [6] (pre-emergence spray), 40%. Moreover, the pest or weed control at 250 g/ha in experiment [7] (pre-emergence spray) was determined as 40%; in experiment [8] (pre-emergence spray), 80%.

For `CCc1ccc(Oc2ncc(Cl)cn2)cc1C1=C(O)CC(C)(C)CC1=O` [Example A-288], the pest or weed control at 250 g/ha in the experiment with Lolium perenne (LOLPE) [1] (glasshouse) is 90%; with Avena fatua (AVEFA) [2] (glasshouse) it was 90%; in experiment [3] (glasshouse), 100%; in experiment [4] (glasshouse), 100%; in the experiment with Lolium perenne (LOLPE) [5] (pre-emergence spray), 100%; in the experiment on Avena fatua (AVEFA) [6] (pre-emergence spray) it was 60%. Also, the pest or weed control at 250 g/ha in experiment [7] (pre-emergence spray) worked out at 90%; in experiment [8] (pre-emergence spray), 100%.

In the case of `CCc1ccc(Oc2ccc(C#N)c(C(F)(F)F)c2)cc1C1=C(O)C(C)(C)OC(C)(C)C1=O` [Example A-76], the pest or weed control at 250 g/ha in the experiment with Lolium perenne (LOLPE) [1] (glasshouse) came to 70%; in the experiment on Avena fatua (AVEFA) [2] (glasshouse), 70%; in experiment [3] (glasshouse), 80%; in experiment [4] (glasshouse) it was 100%; with Lolium perenne (LOLPE) [5] (pre-emergence spray), 60%; in the experiment on Avena fatua (AVEFA) [6] (pre-emergence spray), 80%. The pest or weed control at 250 g/ha stood at 70% in experiment [7] (pre-emergence spray) and 100% in experiment [8] (pre-emergence spray).

For `CCc1ccc(Oc2cncc(Cl)n2)cc1C1=C(O)C(C)(C)OC(C)(C)C1=O` [Example A-102], the pest or weed control at 250 g/ha with Lolium perenne (LOLPE) [1] (glasshouse) amounted to 20%; with Avena fatua (AVEFA) [2] (glasshouse), 0%; in experiment [3] (glasshouse), 10%; in experiment [4] (glasshouse) it was 40%; in the experiment on Lolium perenne (LOLPE) [5] (pre-emergence spray), 20%; in the experiment on Avena fatua (AVEFA) [6] (pre-emergence spray), 0%. In addition, the pest or weed control at 250 g/ha came out at 0% in experiment [7] (pre-emergence spray) and 10% in experiment [8] (pre-emergence spray).

As to `CCc1ccc(Oc2ccc(C(F)(F)F)c(Cl)c2)cc1C1=C(O)[C@H]2CC[C@H](C2)C1=O` [Example A-332], the pest or weed control at 250 g/ha with Lolium perenne (LOLPE) [1] (glasshouse) was 100%; in the experiment with Avena fatua (AVEFA) [2] (glasshouse), 100%; in experiment [3] (glasshouse), 100%; in experiment [4] (glasshouse), 100%; in the experiment on Lolium perenne (LOLPE) [5] (pre-emergence spray), 100%; in the experiment on Avena fatua (AVEFA) [6] (pre-emergence spray), 70%. Also, the pest or weed control at 250 g/ha in experiment [7] (pre-emergence spray) worked out at 80%; in experiment [8] (pre-emergence spray), 100%.

As for `CCc1ccc(Oc2ncc(Br)cn2)cc1C1=C(O)CC(C)(C)CC1=O` [Example A-297], the pest or weed control at 250 g/ha with Lolium perenne (LOLPE) [1] (glasshouse) was 100%; in the experiment on Avena fatua (AVEFA) [2] (glasshouse), 100%; in experiment [3] (glasshouse) it was 100%; in experiment [4] (glasshouse), 100%; in the experiment with Lolium perenne (LOLPE) [5] (pre-emergence spray) it was 100%; in the experiment on Avena fatua (AVEFA) [6] (pre-emergence spray), 50%. Further, the pest or weed control at 250 g/ha in experiment [7] (pre-emergence spray) came to 70%; in experiment [8] (pre-emergence spray), 100%.

As for `CCc1ccc(Oc2nc3cc(Cl)ccc3s2)cc1C1=C(O)CC(C)(C)CC1=O` [Example A-293], the pest or weed control at 250 g/ha worked out at 100% with Lolium perenne (LOLPE) [1] (glasshouse); 100% in the experiment on Avena fatua (AVEFA) [2] (glasshouse); 100% in experiment [3] (glasshouse); 100% in experiment [4] (glasshouse); 100% with Lolium perenne (LOLPE) [5] (pre-emergence spray); 30% with Avena fatua (AVEFA) [6] (pre-emergence spray). Moreover, the pest or weed control at 250 g/ha in experiment [7] (pre-emergence spray) was found to be 80%; in experiment [8] (pre-emergence spray), 100%.
